Source: DBAASP
≈ marks a conversion by molar mass, not a printed value. Where “and” joins values, the source holds several entries; their conditions need not be identical. Equal values may be shown once.

What was measured:
Assay in all cases: ≥ marks a high value that may be exact or a test limit, other limits are often not marked, values filed in µg/mL are converted to µM
Escherichia coli = test system: Escherichia coli
Pseudomonas aeruginosa = test system: Pseudomonas aeruginosa
Staphylococcus aureus MR = test system: Staphylococcus aureus MR
Staphylococcus aureus = test system: Staphylococcus aureus
Escherichia coli K-12 = test system: Escherichia coli K-12
[1] = test system: Staphylococcus aureus USA 300
[2] = test system: Pseudomonas aeruginosa ATCC 10145
[3] = test system: Pseudomonas aeruginosa H1001
[4] = test system: Staphylococcus aureus ATCC BAA-1556
[5] = test system: Bacillus subtilis CMCC 63501
[6] = test system: Enterococcus faecalis ATCC 29212
Escherichia coli 078 = test system: Escherichia coli 078
[7] = test system: Escherichia coli ATCC 25922
Escherichia coli K88 = test system: Escherichia coli K88
Escherichia coli K99 = test system: Escherichia coli K99
Escherichia coli UB1005 = test system: Escherichia coli UB1005
[8] = test system: Salmonella enterica subsp. enterica serovar Pullorum C79-13
[9] = test system: Salmonella enterica subsp. enterica serovar Typhimurium ATCC 14028
[10] = test system: Salmonella enterica subsp. enterica serovar Typhimurium C77-31
[11] = test system: Staphylococcus aureus ATCC 25923
[12] = test system: Staphylococcus aureus ATCC 29213
[13] = test system: Staphylococcus epidermidis ATCC 12228
Candida albicans = test system: Candida albicans
[14] = test system: Pseudomonas aeruginosa H103
[15] = test system: Salmonella enterica serovar Typhimurium
[16] = test system: Staphylococcus epidermidis
[17] = test system: Erwinia amylovora PMV 6076
[18] = test system: Pseudomonas syringae pv. syringae EPS 94
Acinetobacter baumannii = test system: Acinetobacter baumannii
[19] = test system: Pseudomonas aeruginosa PAO1

CC[C@H](C)[C@H](NC(=O)[C@H](C)NC(=O)[C@H](CC(C)C)NC(=O)[C@H](CCCN=C(N)N)NC(=O)[C@H](CC(C)C)NC(=O)[C@H](C)N)C(=O)N[C@@H](CCCN=C(N)N)C(=O)N[C@@H](CCCCN)C(=O)N[C@@H](CCCN=C(N)N)C(N)=O [ALRLAIRKR]
MIC (Escherichia coli): 3.65 µM (≈ 4 µg/mL) | MIC (Pseudomonas aeruginosa): 13.7 µM (≈ 15 µg/mL) | MIC (Staphylococcus aureus MR): ≥ 43.8 µM | MIC (Staphylococcus aureus): 4.56 µM (≈ 5 µg/mL)

CC[C@H](C)[C@H](NC(=O)[C@H](C)NC(=O)[C@H](CC(C)C)NC(=O)[C@H](CC(C)C)NC(=O)[C@H](Cc1c[nH]c2ccccc12)NC(=O)[C@H](C)N)C(=O)N[C@@H](CCCN=C(N)N)C(=O)N[C@@H](CCCCN)C(=O)N[C@@H](CCCN=C(N)N)C(N)=O [AWLLAIRKR]
MIC (Escherichia coli): 4.44 µM (≈ 5 µg/mL) | MIC (Pseudomonas aeruginosa): 3.55 µM (≈ 4 µg/mL) | MIC (Staphylococcus aureus MR): 22.2 µM (≈ 25 µg/mL) | MIC (Staphylococcus aureus): 2.66 µM (≈ 3 µg/mL)

CC[C@H](C)[C@H](NC(=O)[C@H](C)NC(=O)[C@H](CCCCN)NC(=O)[C@H](Cc1ccccc1)NC(=O)CN)C(=O)N[C@H](C(=O)N[C@@H](CCC(N)=O)C(=O)N[C@@H](CCCN=C(N)N)C(=O)N[C@H](C(=O)N[C@@H](CCCCN)C(=O)N[C@@H](CC(=O)O)C(=O)N[C@@H](Cc1ccccc1)C(=O)N[C@@H](CC(C)C)C(=O)N[C@@H](CCCN=C(N)N)C(=O)N[C@@H](CC(N)=O)C(=O)N[C@@H](CC(C)C)C(=O)N[C@H](C(N)=O)C(C)C)[C@@H](C)CC)C(C)C [GFKAIVQRIKDFLRNLV]
MIC (Escherichia coli K-12): 15 µM (≈ 30.2 µg/mL) | MIC [1]: 7.5 µM and 3.1 µM

C[C@H](NC(=O)[C@H](C)NC(=O)[C@H](CCCCN)NC(=O)[C@H](CCCCN)NC(=O)[C@H](C)NC(=O)[C@H](Cc1ccccc1)NC(=O)[C@H](CCCCN)NC(=O)[C@H](CCCCN)NC(=O)[C@H](C)NC(=O)[C@H](C)NC(=O)[C@H](CCCCN)NC(=O)[C@H](CCCCN)NC(=O)[C@H](C)NC(=O)[C@H](Cc1ccccc1)NC(=O)[C@@H](N)CCCCN)C(=O)N[C@@H](CCCCN)C(=O)O [KFAKKAAKKFAKKAAK]
MIC [2]: ≥ 142 µM

NCCCC[C@H](NC(=O)[C@H](CCCN=C(N)N)NC(=O)[C@H](Cc1c[nH]c2ccccc12)NC(=O)[C@H](CCCCN)NC(=O)[C@H](Cc1c[nH]c2ccccc12)NC(=O)[C@H](Cc1c[nH]c2ccccc12)NC(=O)[C@H](Cc1cnc[nH]1)NC(=O)[C@H](Cc1ccccc1)NC(=O)[C@@H](N)CCCCN)C(N)=O [KFHWWKWRK]
MIC [3]: ≥ 178 µM

CC(C)C[C@H](NC(=O)[C@H](CC(C)C)NC(=O)[C@H](CCCCN)NC(=O)[C@H](CC(C)C)NC(=O)[C@H](CC(C)C)NC(=O)[C@H](Cc1c[nH]c2ccccc12)NC(=O)[C@@H](N)CCCCN)C(N)=O [KWLLKLL]
MIC [4]: ≥ 100 µM

CC[C@H](C)[C@H](NC(=O)[C@H](Cc1c[nH]c2ccccc12)NC(=O)[C@H](CC(C)C)NC(=O)[C@H](CCCN=C(N)N)NC(=O)[C@H](Cc1c[nH]c2ccccc12)NC(=O)[C@@H](N)CCCCN)C(=O)N[C@@H](CCCN=C(N)N)C(=O)N[C@@H](Cc1c[nH]c2ccccc12)C(=O)N[C@@H](CC(C)C)C(N)=O [KWRLWIRWL]
MIC [4]: 12.5 µM (≈ 16.9 µg/mL)

CC[C@H](C)[C@H](NC(=O)[C@H](Cc1c[nH]c2ccccc12)NC(=O)[C@H](CCCN=C(N)N)NC(=O)[C@H](CCCN=C(N)N)NC(=O)[C@H](Cc1c[nH]c2ccccc12)NC(=O)[C@@H](N)CCCCN)C(=O)N[C@@H](C)C(=O)N[C@@H](Cc1c[nH]c2ccccc12)C(=O)N[C@@H](CC(C)C)C(N)=O [KWRRWIAWL]
MIC [4]: 12.5 µM (≈ 16.4 µg/mL)

CC[C@H](C)[C@H](NC(=O)[C@H](Cc1c[nH]c2ccccc12)NC(=O)[C@H](CCCN=C(N)N)NC(=O)[C@H](CCCN=C(N)N)NC(=O)[C@H](Cc1c[nH]c2ccccc12)NC(=O)[C@@H](N)CCCCN)C(N)=O [KWRRWI]
MIC [4]: ≥ 100 µM

CC(C)C[C@H](NC(=O)[C@H](CCCCN)NC(=O)[C@H](CC(C)C)NC(=O)[C@H](CC(C)C)NC(=O)[C@H](CC(C)C)NC(=O)[C@H](CCCCN)NC(=O)[C@@H](N)CC(C)C)C(N)=O [LKLLLKL]
MIC [4]: ≥ 100 µM

CC[C@H](C)[C@H](NC(=O)[C@H](Cc1c[nH]c2ccccc12)NC(=O)[C@H](CCCCN)NC(=O)[C@H](CC(C)C)NC(=O)[C@@H](NC(=O)[C@H](Cc1c[nH]c2ccccc12)NC(=O)CNC(=O)[C@@H](NC(=O)[C@H](CCCCN)NC(=O)[C@H](CCCCN)NC(=O)[C@H](CC(C)C)NC(=O)[C@@H](N)CCCN=C(N)N)[C@@H](C)CC)C(C)C)C(N)=O [RLKKIGWVLKWI]
MIC [5]: 2 µM (≈ 3.08 µg/mL) | MIC [6]: 4 µM (≈ 6.16 µg/mL) | MIC (Escherichia coli 078): 4 µM (≈ 6.16 µg/mL) | MIC [7]: 2 µM (≈ 3.08 µg/mL) | MIC (Escherichia coli K88): 1 µM (≈ 1.54 µg/mL) | MIC (Escherichia coli K99): 4 µM (≈ 6.16 µg/mL) | MIC (Escherichia coli UB1005): 1 µM (≈ 1.54 µg/mL) | MIC [8]: 1 µM (≈ 1.54 µg/mL) | MIC [9]: 4 µM (≈ 6.16 µg/mL) | MIC [10]: 4 µM (≈ 6.16 µg/mL) | MIC [11]: 4 µM (≈ 6.16 µg/mL) | MIC [12]: 4 µM (≈ 6.16 µg/mL) | MIC [13]: 4 µM (≈ 6.16 µg/mL)

CC(C)[C@H](NC(=O)[C@H](CCCN=C(N)N)NC(=O)[C@H](Cc1c[nH]c2ccccc12)NC(=O)[C@H](Cc1c[nH]c2ccccc12)NC(=O)[C@H](Cc1c[nH]c2ccccc12)NC(=O)[C@H](CCCN=C(N)N)NC(=O)[C@H](Cc1c[nH]c2ccccc12)NC(=O)[C@@H](N)CCCN=C(N)N)C(=O)N[C@@H](Cc1ccc(O)cc1)C(=O)O [RWRWWWRVY]
MIC (Candida albicans): 13.2 µM (≈ 19.7 µg/mL) | MIC [6]: 3.3 µM (≈ 4.93 µg/mL) | MIC (Escherichia coli UB1005): 1.6 µM (≈ 2.39 µg/mL) | MIC [14]: 13.2 µM (≈ 19.7 µg/mL) | MIC [15]: 3.3 µM (≈ 4.93 µg/mL) | MIC [11]: 3.3 µM (≈ 4.93 µg/mL) | MIC [16]: 1.6 µM (≈ 2.39 µg/mL)

CC[C@H](C)[C@H](NC(=O)[C@H](CCCCN)NC(=O)[C@H](CCCCN)NC(=O)[C@H](Cc1ccccc1)NC(=O)[C@H](CC(C)C)NC(=O)[C@H](CCCCN)NC(=O)[C@H](CCCCN)NC(=O)[C@@H](N)CO)C(=O)N[C@@H](CC(C)C)C(=O)N[C@@H](CCCCN)C(=O)N[C@@H](Cc1ccc(O)cc1)C(=O)N[C@@H](CC(C)C)C(=O)N[C@@H](C)C(=O)NCC(=O)N1CCC[C@H]1C(=O)N[C@@H](C)C(=O)N[C@@H](CCCCN)C(=O)N[C@@H](Cc1ccccc1)C(=O)N[C@@H](CC(C)C)C(=O)N[C@@H](Cc1cnc[nH]1)C(=O)N[C@@H](CO)C(=O)N[C@@H](C)C(=O)N[C@@H](CCCCN)C(=O)O [SKKLFKKILKYLAGPAKFLHSAK]
MIC [17]: 3.54 µM (≈ 9.25 µg/mL) | MIC [18]: 3.54 µM (≈ 9.25 µg/mL)

CC[C@H](C)[C@H](NC(=O)[C@H](CCCN=C(N)N)NC(=O)[C@H](CC(C)C)NC(=O)[C@H](CCC(N)=O)NC(=O)[C@@H](N)C(C)C)C(=O)N[C@@H](CCCN=C(N)N)C(=O)N[C@H](C(=O)N[C@@H](CS)C(=O)N[C@H](C(=O)N[C@H](C(=O)N[C@@H](CCCN=C(N)N)C(=O)N[C@@H](CCCN=C(N)N)C(=O)O)[C@@H](C)CC)C(C)C)C(C)C [VQLRIRVCVIRR]
MIC (Acinetobacter baumannii): 30 µM (≈ 45.3 µg/mL) | MIC [7]: 10.6 µM (≈ 16 µg/mL) | MIC (Escherichia coli): > 84.7 µM | MIC [19]: 21.2 µM (≈ 32 µg/mL) | MIC (Pseudomonas aeruginosa): 21.2 µM (≈ 32 µg/mL) | MIC [15]: 10.6 µM (≈ 16 µg/mL) | MIC [11]: 10.6 µM (≈ 16 µg/mL) | MIC (Staphylococcus aureus): 15 µM (≈ 22.6 µg/mL)

CC(C)C[C@H](NC(=O)[C@H](CCCN=C(N)N)NC(=O)[C@H](Cc1c[nH]c2ccccc12)NC(=O)[C@H](CC(C)C)NC(=O)[C@H](Cc1c[nH]c2ccccc12)NC(=O)[C@H](Cc1c[nH]c2ccccc12)NC(=O)[C@H](CC(C)C)NC(=O)[C@H](Cc1c[nH]c2ccccc12)NC(=O)[C@@H](N)Cc1c[nH]c2ccccc12)C(N)=O [WWLWWLWRL]
MIC [4]: 3.12 µM (≈ 4.51 µg/mL)
